{
  "source": "patent US12121746B2",
  "about": "“Energy augmentation structures, energy emitters or energy collectors containing the same, and their use in methods and systems for treating cell proliferation disorders” (priority 2019, dated 2024)",
  "key": {"[1]": {"settings": "cited from earlier work"}, "[2]": {"tested_on": "syngeneic 4T1-HER2 tumors", "assay": "In-vivo X-PACT trial on syngeneic tumors", "parameters": "species or system BALB/c mice", "settings": "treatment arms with x-ray; 5 μM psoralen (AMT), 100 μg of phosphor; FIG. 54", "protocol": "There were 4 arms of the trial: […] […] There were 6-8 mice per arm, and the study was repeated a second time, yielding effective sample sizes of 12-16. […] A consistent x-ray irradiation technique was used for all arms (except saline control) which was 2 Gy delivered at 75 kVp by 30 mA in 3 minutes."}, "[3]": {"tested_on": "CT2A (murine malignant glioma)", "assay": "UV light activated psoralen, Cell-Titer-Glo Luminescence Cell Viability Assay", "type": "cell-based", "settings": "psoralen 40 ρM; UV light 0, 0.25, 0.5, 1.0 J/cm^2; N=4; FIG. 51A", "protocol": "(§1) Metabolic cell viability was also assessed visually using Methylene blue staining and ATP-induced Luminescence imaging (Cell-Titer-Glo® Luminescence Cell Viability Assay). The luminescence imaging permitted investigation of the cytotoxicity of psoralen activated directly with a UV lamp, and in the absence of phosphors and x-ray radiation. […] The psoralen concentration was 40 ρM."}, "[4]": {"tested_on": "4T1", "assay": "UV light activated psoralen, Cell-Titer-Glo Luminescence Cell Viability Assay", "type": "cell-based, murine", "settings": "psoralen 40 ρM; UV light 0, 0.25, 0.5, 1.0 J/cm^2; N=4; FIG. 51A", "protocol": "as §1"}, "[5]": {"tested_on": "KP158B (sarcoma)", "assay": "UV light activated psoralen, Cell-Titer-Glo Luminescence Cell Viability Assay", "type": "cell-based, murine", "settings": "psoralen 40 ρM; UV light 0, 0.25, 0.5, 1.0 J/cm^2; N=4; FIG. 51A", "protocol": "as §1"}, "[6]": {"tested_on": "4T1-HER2 cells", "settings": "multi-variable regression on 36 independent irradiation experiments; irradiated", "quoted_text": "In-vitro X-PACT studies were conducted on cells prepared in the following manner. Cells were incubated in appropriate growing media and buffers before being trypsinized and plated evenly onto twelve (12) well plates for 24 hours. […] The plates were then irradiated with x-rays by placing the plate at a known distance from the x-ray source (e.g., 50 cm). After irradiation the cells were incubated on the plate for 48 hours prior to performing flow cytometry. For compatibility with 96-well Guava Nexin® assay, the remaining cells were again trypsinized (after the 48 hour incubation) and plated onto a 96-well plate. The phosphors used in this evaluation were designated as NP 200 and GTP 4300. […]\nCells plated in 12-well plates, where individual wells in each plate may receive different experimental conditions (e.g. psoralen concentration), but the same x-ray dose (i.e. all wells in a given plate receive the same x-ray dose). The first metric is metabolically viable cell count (or cell viability) determined from the number of whole cells per well as determined using forward scattering (FSC). […] (All wells on a given plate receive the same dose.) The second metric is Annexin V (+) signal, which is the fraction of the metabolically viable cells which expressed a positive Annexin V signal as determined by flow cell cytometry, and include any cells advancing toward early or late apoptotic cell death. […]"}, "[7]": {"settings": "in vivo; cited from earlier work"}},
  "note": "Read-outs that look alike come from different tables or passages of the source.",
  "data": [
    {"molecule": "Oc1cccc(-c2c3nc(c(-c4cccc(O)c4)c4ccc([nH]4)c(-c4cccc(O)c4)c4nc(c(-c5cccc(O)c5)c5ccc2[nH]5)CC4)C=C3)c1", "note": "[Foscan, Tetra (m-hydroxyphenyl) chlorin]", "values": [
      {"measurement": "Length of photosensitization", "setting": "[1]; Table 3", "result": 2, "unit": "weeks"},
      {"measurement": "duration of skin photosensitivity", "setting": "[1]", "result": "approximately 2 weeks"}
    ]},
    {"molecule": "CC(=O)[O-].CC(=O)[O-].CCc1c(CC)c2cc3nc(cnc4cc(OCCOCCOCCOC)c(OCCOCCOCCOC)cc4ncc4nc(cc1[n-]2)C(CCCO)=C4C)C(C)=C3CCCO.O.[Lu+3]", "note": "[Lutetium texahyrin, Motexafin lutetium]", "values": [
      {"measurement": "Length of photosensitization", "setting": "[1]; in vivo", "result": "24 to 48", "unit": "h"},
      {"measurement": "duration of skin photosensitivity", "setting": "[1]; in vivo", "result": "24 to 48", "unit": "h"}
    ]},
    {"molecule": "O=c1ccc2cc3ccoc3cc2o1", "note": "[psoralen]", "values": [
      {"measurement": "tumor growth effect", "setting": "[2]", "result": "slightly higher component effect"},
      {"measurement": "viable cells", "setting": "[3]", "result": "reduce viable cells"},
      {"measurement": "viable cells", "setting": "[4]", "result": "reduce viable cells"},
      {"measurement": "viable cells", "setting": "[5]", "result": "reduce viable cells"},
      {"measurement": "cytotoxicity (Annexin V signal)", "setting": "[6]", "result": "neither psoralen nor phosphor alone had a strong effect"}
    ]},
    {"molecule": "Vitamin B12", "values": [
      {"measurement": "route of excretion", "setting": "[7]", "result": "excreted by glomerular filtration"}
    ]}
  ]
}
